Laboratory results reported in patent publication US20240239818A1, “COMPOUNDS AND COMPOSITIONS COMPRISING FLUOROPHORES FOR USE IN VISUALIZATION AND PURIFICATION OR MANIPULATION” (priority 2022, published 2024).
Read-outs that look alike come from different tables or passages of the source.

Columns and labels:
[1] = Determination of lactone-zwitterion equilibrium constant (KL-Z); format: physicochemical; details: 1:1 (v/v) dioxane:water
Description: Determination of KL-Z. The lactone-zwitterion equilibrium constant (KL-Z) was calculated as described previously^13, 23, 32, 45 using equation 1: […]
where εdw is the extinction coefficient of the dyes in a 1:1 (v/v) dioxane:water solvent mixture containing 0.01% (v/v) triethylamine; this dioxane water mixture was chosen to give a large range of KL-Z values,^23 and the triethylamine additive ensures the rhodamines are in the net neutral form. The εmax is the maximal extinction coefficient, measured in 0.1% (v/v) trifluoroacetic acid in 2,2,2-trifluoroethanol (TFE).

[2] = format: physicochemical
Description: Determination of logD7.4. The log of distribution coefficients at pH 7.4 was determined in octanol-phosphate-buffered saline (PBS) using the miniaturized shake flask setup described previously.^36, 47 Briefly, 150 mL each of octanol and PBS pH 7.4 were stirred vigorously for 12-16 h. The layers were allowed to stand for at least 24 h for phase separation. The separated layers were collected and served as PBS saturated with octanol (PBS*) and octanol saturated with PBS (octanol*). Stock solutions (1 mM or 5 mM) of ligands were prepared in DMSO and diluted in PBS* to obtain 1 μM or 10 μM (3-5 mL) of the standard (std). This standard was used to prepare appropriate dilutions using octanol*, in triplicate, in 2-mL glass vials. The leftover standard was used to determine the standard concentration (Cstd). The vials were vortexed for 1 min and shaken horizontally at 700 rpm for 2 h. The vials were then shaken upright at 150 rpm for 2 h to allow the phases to separate. The octanol* layer was pipetted out, and the PBS* layer was used for further analyses. The concentrations of ligands in the standard and PBS* (CPBS*) were determined via fluorescence measurements of 200 μL of PBS* or std in 96-well plates on the Cytation 5 Multimode Plate Reader (BioTek). For Si-rhodamine containing ligands, 2-20 μL of trifluoroacetic acid was added to each well of the 96-well plate prior to the fluorescence measurements. Reported values are averages of at least two measurements. The logD7.4 was obtained as described previously using equation 2:
[formula] • where Cstd is the standard concentration in PBS, CPBS* is the concentration in PBS after partitioning, r is the dilution factor of the standard solution, VPBS* is the volume of PBS used in the partitioning, and Voctanol* is the volume of octanol used in the partitioning.

[3] = biological target: T1, msGFP-HaloTag® fusion localized to the mitochondrial outer membrane (Rhodococcus rhodochrous, UniProt P0A3G2, A155T/A167V/A172T/A224E/C128F/C176G/D78G/E160K/E257K/H272N/K175M/K195N/L47V/L88M/N227D/S58T/T264A/Y273L/Y87F); assay: HEK293T labeling and fluorescence microscopy; format: cell-based; details: for labeling of mitochondria-localized HaloTag®-msGFP fusion: live HEK293T cells, nanomolar concentration (100 nM, 1 h); for concentration at which ligand can be deployed for cellular labeling: live cells; for cellular fluorescence intensity (JF ligand/msGFP ratio): HEK293T cells, 100 nM, same imaging conditions
T1 construct: expressed in transfected cells; host or cells: HEK293T, calcium phosphate transfection
From the text: Plasmid construction. HaloTag®, amplified from the pHTC HaloTag® CMV-neo Vector (Promega; G7711) and monomeric-superfolder green fluorescent protein (msGFP; lab stock), was fused to the mitochondrial targeting signal from OMP25,^28 interspacing flexible GS(GSS)4 linkers between each domain by PCR Splicing by Overlap Extension (SOE). This construct was subcloned into hSynapsin promoter bearing a copy of FUGW.^29 FUGW was a gift from David Baltimore (Addgene plasmid #14883; RRID: Addgene_14883).^48 This construct was designated as pF(UG) hSyn HaloTag®-TEV-4×GS-msGFP-mito.
HEK293T cell culture. HEK293T cells (ATCC) were passaged before 80% confluency by trypsinization (Corning; 25-053-CI) and trituration. The cell suspension was then plated on glass coverslips (Warner instruments; 64-0734, CS-18R17) coated with poly-D-lysine (Thermofisher; ICN10269491) and cultured in Dulbecco's Modified Eagle Medium (DMEM; ThermoFisher; 11965-118) supplemented with 10% v/v fetal bovine serum (FBS, Atlanta Biological) and penicillin/streptomycin (pen/strep; ThermoFisher; MT-30-001-CI) at 37° C. in a humidified 5% v/v CO2 environment following ATCC guidelines. These HEK293T cells were tested for mycoplasma contamination using the Universal Mycoplasma Detection Kit (ATCC; 30-1012K) and validated using Short Tandem Repeat profiling by ATCC (ATCC; 135-XV) within the previous year.
HEK293T labeling and fluorescence microscopy. […] For pulse-chase experiments, HEK293T cells were incubated with biotin-HaloTag® ligand (6; #G8281, Promega) at either 100 nM or 10 μM for 1 hour at 37° C. and chased with 100 nM of JANELIA FLUOR® (JF)549-HaloTag® ligand (2HTL). […] For imaging, the coverslips containing HEK293T cells were fixed with 4% paraformaldehyde in PBS at 37° C. for 10 min, washed with PBS (3×), and mounted on glass slides with ProLong Glass Antifade Mountant with NucBlue™ Stain (ThermoFisher; P36981). These cells were imaged using a Zeiss LSM 880 with Airyscan and a plan-apochromatic 63×/1.40 oil objective in Fast Airyscan mode. The same image acquisition settings were used for each trial and condition. Images were then processed with automatic Airyscan deconvolution settings.

[4] = system: HaloTag®-histone H2B fusion protein; format: cell-based; details: for time to reach saturation of labeling: 200 nM, live U2OS cells expressing HaloTag®-H2B, 0-4 h
Description: Dye loading kinetics. Live U2OS.H2B.HaloTag® stable cells were labeled over a time course of 0-4 h with 200 nM of biotin-JF549-HaloTag® ligand (12), biotin-JF608-HaloTag® ligand (13), biotin-JF646-HaloTag® ligand (14), or biotin-JF635-HaloTag® ligand (15) at 37° C. Cells were then washed 3× with dye-free media, fixed with 4% paraformaldehyde in 0.1 M phosphate buffer, pH 7.4 for 15 min at 37° C. Confocal imaging was performed on a Leica SP8 with an HC PL APO CS2 20×/0.75 immersion objective using the tunable white light laser (WLL) to excite dyes at their λabs in constant power mode. Fluorescence was quantified as the average integrated density of background corrected nuclear signals from confocal image stack projections analyzed in FIJI; n=100 nuclear signals per compound.

T1 sequence (P0A3G2 other isoform, or with tags, fused parts or gaps with the stated changes): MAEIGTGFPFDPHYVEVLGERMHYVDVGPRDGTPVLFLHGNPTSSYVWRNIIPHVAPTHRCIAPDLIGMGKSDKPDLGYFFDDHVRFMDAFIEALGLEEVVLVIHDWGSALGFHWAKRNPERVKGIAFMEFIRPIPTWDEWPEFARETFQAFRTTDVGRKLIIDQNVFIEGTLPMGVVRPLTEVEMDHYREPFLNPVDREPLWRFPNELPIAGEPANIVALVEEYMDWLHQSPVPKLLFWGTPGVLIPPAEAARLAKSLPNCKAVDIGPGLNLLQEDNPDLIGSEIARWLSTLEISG

Compound	KL-Z [1]	logD7.4 ([2]; octanol-PBS pH 7.4)	labeling of mitochondria-localized HaloTag®-msGFP fusion [3]	concentration at which ligand can be deployed for cellular labeling [3] [nM]	time to reach saturation of labeling [4]	cellular fluorescence intensity (JF ligand/msGFP ratio) [3]	logD7.4 ([2]; pH 7.4)	membrane permeability [4]
C[Si]1(C)c2cc(N3CC(F)C3)ccc2C2(OC(=O)c3ccc(C(=O)NCCOCCOCCCCCCCl)cc32)c2ccc(N3CC(F)C3)cc21 [5HTL, JF635-HaloTag® ligand, reference compound]	0.0048	3.82	labeled the mitochondria in live cells					
C[Si]1(C)C2=CC(=[N+]3CC(C(=O)NCCOCCOCCNC(=O)CCCC[C@@H]4SC[C@@H]5NC(=O)N[C@@H]54)C3)C=CC2=C(c2cc(C(=O)NCCOCCOCCCCCCCl)ccc2C(=O)[O-])c2ccc(N3CCC3)cc21 (stereo partly shown) [compound 14, Biotin-JF646-HaloTag® ligand]	0.0086	3.06	labeled the mitochondria in live cells	100	approximately 1 h			
C[Si]1(C)C2=CC(=[N+]3CC(F)(C(=O)NCCOCCOCCNC(=O)CCCC[C@@H]4SC[C@@H]5NC(=O)N[C@@H]54)C3)C=CC2=C(c2cc(C(=O)NCCOCCOCCCCCCCl)ccc2C(=O)[O-])c2ccc(N3CC(F)C3)cc21 (stereo partly shown) [compound 15, Biotin-JF635-HaloTag® ligand]	0.0032	3.6	labeled the mitochondria in live cells	100	approximately 1 h	lower fluorescence intensity than 5HTL		
Biotin-JF549-HaloTag® ligand [compound 12]	5.9		did not show appreciable cellular labeling			poor labeling	0.07	negligible membrane permeability
